Results on seven molecules are retold here after patent publication US4605641A, “Synthetic vasoactive intestinal peptide analogs” (Hoffmann-La Roche Inc., priority 1984, dated 1986).

The test system of this assay is guinea pig trachea smooth muscle. Kind of assay: Bronchodilator (relaxant) effect on isolated guinea pig tracheal rings. It counts as cell-based. Conditions: for Relative Potency: guinea pig trachea, relative to VIP = 100%; for EC50: guinea pig tracheal rings, relaxation as % of maximum response to VIP 10^-6 M, three tissues pooled, linear regression, read-out: EC50 (M), agonist activity, bronchodilator effect. The text has this:
The bronchodilatory effect of VIP analogs was studied in a model utilizing guinea pig trachea. Wasserman, M. A. et al. "Comparative In Vitro Tracheal Relaxant Effects of Porcine and Hen VIP" in Vasoactive Intestinal Peptide ed. Said, S.I., Raven Press (New York, 1982).
All tissues were taken from male albino guinea pigs weighing 400-600 g, anesthetized with urethane 2 g/kg i.p. After exsanguination the trachea was removed and divided into four ring segments (3 mm length). Each ring was suspended by two 30 guage stainless steel wires in a 10 ml jacket tissue bath and attached via 4-0 silk thread to a Grass force displacement transducer (model FT03C, Grass Instrument Co., Quincy, MA), for isometric recording of tension. The smooth muscle was bathed in modified Krebs solution of the following composition: NaCl, 120 mM; KCl, 4.7 mM; CaCl2, 2.5 mM; MgSO4.7H2 O; 1.2 mM; NaHCO3, 25 mM; KH2 PO4 monobasic, 1.2 mM; and dextrose, 10 mM. Tissue baths were maintained at 37.5° C. and constantly bubbled with 95% O2 and 5% CO2. Responses were recorded on an 8 channel and 4 channel Hewlett-Packard (model 7702B and 7754A, respectively) recorder (Hewlett Packard, Paramus, NJ). Tracheal rings were placed under a resting tension of 1.5 g which was determined to be at or near optimal in preliminary experiments. Frequent readjustments of tension were required during the 60 min. stabilization period which followed. Tissues were rinsed at 15 min. intervals.
Cumulative concentration response curves were obtained for each tissue by successive […] in the bath concentration of VIP or potential VIP agonists according to the method of VanRossum J. M., Arch. Int Pharmacodyn, 143, 299-330 (1963). Only one cummulative dose response curve was obtained on a single piece of tissue. To minimize variability between tissues, relaxant responses are expressed as a percentage of the maximum response obtainable to VIP (10^-6 M=100%) added at the end of the concentration response curve. Responses obtained from three tissues were pooled and EC50 values were determined by linear regression.

Peptide text beside a SMILES is read from it.

As usually defined, the EC50 is the concentration at which the effect is half-maximal. Take `CCCC[C@H](NC(=O)[C@H](CCC(N)=O)NC(=O)[C@H](CCCCN)NC(=O)[C@H](CCCCN)NC(=O)[C@H](CC(C)C)NC(=O)[C@H](CCCNC(=N)N)NC(=O)[C@@H](NC(=O)[C@H](Cc1ccc(O)cc1)NC(=O)[C@H](CC(N)=O)NC(=O)[C@H](CC(=O)O)NC(=O)[C@@H](NC(=O)[C@H](Cc1ccccc1)NC(=O)[C@@H](NC(=O)[C@H](C)NC(=O)[C@H](CC(=O)O)NC(=O)[C@H](CO)NC(=O)[C@@H](N)Cc1c[nH]cn1)C(C)C)[C@@H](C)O)[C@@H](C)O)C(=O)N[C@@H](C)C(=O)N[C@H](C(=O)N[C@@H](CCCCN)C(=O)N[C@@H](CCCCN)C(=O)N[C@@H](Cc1ccc(O)cc1)C(=O)N[C@@H](CC(C)C)C(=O)N[C@@H](CC(N)=O)C(=O)N[C@@H](CO)C(=O)N[C@H](C(=O)N[C@@H](CC(C)C)C(=O)N[C@@H](CC(N)=O)C(N)=O)[C@@H](C)CC)C(C)C` [(Lys^14, Nle^17)--VIP, (Lys^14, Nle^17)VIP] (HELM PEPTIDE1{H.S.D.A.V.F.T.D.N.Y.T.R.L.K.K.Q.[Nle].A.V.K.K.Y.L.N.S.I.L.N.[am]}$$$$V2.0): the “Relative Potency” value is on record as 172% and the EC50 was found to be 5.8e-09 M.

Consider `CCCC[C@H](NC(=O)[C@H](CCC(N)=O)NC(=O)[C@H](CCCCN)NC(=O)[C@H](CCCCN)NC(=O)[C@H](CC(C)C)NC(=O)[C@H](CCCCN)NC(=O)[C@@H](NC(=O)[C@H](Cc1ccc(O)cc1)NC(=O)[C@H](CC(N)=O)NC(=O)[C@H](CC(=O)O)NC(=O)[C@@H](NC(=O)[C@H](Cc1ccccc1)NC(=O)[C@@H](NC(=O)[C@H](C)NC(=O)[C@H](CC(=O)O)NC(=O)[C@H](CO)NC(=O)[C@@H](N)Cc1c[nH]cn1)C(C)C)[C@@H](C)O)[C@@H](C)O)C(=O)N[C@@H](C)C(=O)N[C@H](C(=O)N[C@@H](CCCCN)C(=O)N[C@@H](CCCCN)C(=O)N[C@@H](Cc1ccc(O)cc1)C(=O)N[C@@H](CC(C)C)C(=O)N[C@@H](CC(N)=O)C(=O)N[C@@H](CO)C(=O)N[C@H](C(=O)N[C@@H](CC(C)C)C(=O)N[C@H](C(N)=O)[C@@H](C)O)C(C)C)C(C)C` [(Lys^12, Lys^14, Nle^17, Val^26, Thn^28, (Lys^12, Lys^14, Nle^17, Val^26, Thr^28)VIP] (HELM PEPTIDE1{H.S.D.A.V.F.T.D.N.Y.T.K.L.K.K.Q.[Nle].A.V.K.K.Y.L.N.S.V.L.T.[am]}$$$$V2.0), for which the “Relative Potency” value amounted to 143% and the EC50 was 7e-09 M.

`CCCC[C@H](NC(=O)[C@H](CCC(N)=O)NC(=O)[C@H](CCCCN)NC(=O)[C@H](CCCNC(=N)N)NC(=O)[C@H](CC(C)C)NC(=O)[C@H](CCCCN)NC(=O)[C@@H](NC(=O)[C@H](Cc1ccc(O)cc1)NC(=O)[C@H](CC(N)=O)NC(=O)[C@H](CC(=O)O)NC(=O)[C@@H](NC(=O)[C@H](Cc1ccccc1)NC(=O)[C@@H](NC(=O)[C@H](C)NC(=O)[C@H](CC(=O)O)NC(=O)[C@H](CO)NC(=O)[C@H](Cc1c[nH]cn1)NC(C)=O)C(C)C)[C@@H](C)O)[C@@H](C)O)C(=O)N[C@@H](C)C(=O)N[C@H](C(=O)N[C@@H](CCCCN)C(=O)N[C@@H](CCCCN)C(=O)N[C@@H](Cc1ccc(O)cc1)C(=O)N[C@@H](CC(C)C)C(=O)N[C@@H](CC(N)=O)C(=O)N[C@@H](CO)C(=O)N[C@H](C(=O)N[C@@H](CC(C)C)C(=O)N[C@@H](CC(N)=O)C(N)=O)[C@@H](C)CC)C(C)C` [Ac--(Lys^12, Nle^17)--VIP, Ac-(Lys^12, Nle^17)VIP] (HELM PEPTIDE1{[ac].H.S.D.A.V.F.T.D.N.Y.T.K.L.R.K.Q.[Nle].A.V.K.K.Y.L.N.S.I.L.N.[am]}$$$$V2.0): the “Relative Potency” value stood at 67% and the EC50 was determined as 1.5e-08 M.

As for `CCCC[C@H](NC(=O)[C@H](CCC(N)=O)NC(=O)[C@H](CCCCN)NC(=O)[C@H](CCCNC(=N)N)NC(=O)[C@H](Cc1ccccc1)NC(=O)[C@H](CCCNC(=N)N)NC(=O)[C@H](CO)NC(=O)[C@H](Cc1ccc(O)cc1)NC(=O)[C@H](CC(N)=O)NC(=O)[C@H](CC(=O)O)NC(=O)[C@@H](NC(=O)[C@H](Cc1ccccc1)NC(=O)[C@@H](NC(=O)[C@H](C)NC(=O)[C@H](CC(=O)O)NC(=O)[C@H](CO)NC(=O)[C@H](Cc1c[nH]cn1)NC(C)=O)C(C)C)[C@@H](C)O)C(=O)N[C@@H](C)C(=O)N[C@H](C(=O)N[C@@H](CCCCN)C(=O)N[C@@H](CCCCN)C(=O)N[C@@H](Cc1ccc(O)cc1)C(=O)N[C@@H](CC(C)C)C(=O)N[C@@H](CC(N)=O)C(=O)N[C@@H](CO)C(=O)N[C@H](C(=O)N[C@@H](CC(C)C)C(=O)N[C@@H](CC(N)=O)C(N)=O)[C@@H](C)CC)C(C)C` [Ac--(Ser^11, Phe^13, Nle^17)--VIP, Ac-(Ser^11, Phe^13, Nle^17)VIP] (HELM PEPTIDE1{[ac].H.S.D.A.V.F.T.D.N.Y.S.R.F.R.K.Q.[Nle].A.V.K.K.Y.L.N.S.I.L.N.[am]}$$$$V2.0), the “Relative Potency” value came out at 45% and the EC50 was 2.2e-08 M.

Consider `CCCC[C@H](NC(=O)[C@H](CCC(N)=O)NC(=O)[C@H](CCCCN)NC(=O)[C@H](CCCNC(=N)N)NC(=O)[C@H](CC(C)C)NC(=O)[C@H](CCCCN)NC(=O)[C@@H](NC(=O)[C@H](Cc1ccc(O)cc1)NC(=O)[C@H](CC(N)=O)NC(=O)[C@H](CC(=O)O)NC(=O)[C@@H](NC(=O)[C@H](Cc1ccccc1)NC(=O)[C@@H](NC(=O)[C@H](C)NC(=O)[C@H](CC(=O)O)NC(=O)[C@H](CO)NC(=O)[C@@H](N)Cc1c[nH]cn1)C(C)C)[C@@H](C)O)[C@@H](C)O)C(=O)N[C@@H](C)C(=O)N[C@H](C(=O)N[C@@H](CCCCN)C(=O)N[C@@H](CCCCN)C(=O)N[C@@H](Cc1ccc(O)cc1)C(=O)N[C@@H](CC(C)C)C(=O)N[C@@H](CC(N)=O)C(=O)N[C@@H](CO)C(=O)N[C@H](C(=O)N[C@@H](CC(C)C)C(=O)N[C@H](C(N)=O)[C@@H](C)O)C(C)C)C(C)C` [(Lys^12, Nle^17, Val^26, Thr^28)--VIP, (Lys^12, Nle^17, Val^26, Thr^28)VIP] (HELM PEPTIDE1{H.S.D.A.V.F.T.D.N.Y.T.K.L.R.K.Q.[Nle].A.V.K.K.Y.L.N.S.V.L.T.[am]}$$$$V2.0), for which the “Relative Potency” value is listed as 286% and the EC50 worked out at 3.5e-09 M.

As to `CCCC[C@H](NC(=O)[C@H](CCC(N)=O)NC(=O)[C@H](CCCCN)NC(=O)[C@H](CCCNC(=N)N)NC(=O)[C@H](CC(C)C)NC(=O)[C@H](CCCNC(=N)N)NC(=O)[C@@H](NC(=O)[C@H](Cc1ccc(O)cc1)NC(=O)[C@H](CC(N)=O)NC(=O)[C@H](CC(=O)O)NC(=O)[C@@H](NC(=O)[C@H](Cc1ccccc1)NC(=O)[C@@H](NC(=O)[C@H](C)NC(=O)[C@H](CC(=O)O)NC(=O)[C@H](CO)NC(=O)[C@@H](N)Cc1c[nH]cn1)C(C)C)[C@@H](C)O)[C@@H](C)O)C(=O)N[C@@H](C)C(=O)N[C@H](C(=O)N[C@@H](CCCCN)C(=O)N[C@@H](CCCCN)C(=O)N[C@@H](Cc1ccc(O)cc1)C(=O)N[C@@H](CC(C)C)C(=O)N[C@@H](CC(N)=O)C(=O)N[C@H](C(=O)N[C@H](C(=O)N[C@@H](CC(C)C)C(=O)N[C@@H](CC(N)=O)C(N)=O)[C@@H](C)CC)[C@@H](C)O)C(C)C` [(Nle^17, Thr^25)--VIP, (Nle^17, Thr^25)VIP] (HELM PEPTIDE1{H.S.D.A.V.F.T.D.N.Y.T.R.L.R.K.Q.[Nle].A.V.K.K.Y.L.N.T.I.L.N.[am]}$$$$V2.0), the “Relative Potency” value is given as 101% and the EC50 is 9.9e-09 M.

For the molecule `CCCC[C@H](NC(=O)[C@H](CCC(N)=O)NC(=O)[C@H](CCCCN)NC(=O)[C@H](CCCNC(=N)N)NC(=O)[C@H](CC(C)C)NC(=O)[C@H](CCCNC(=N)N)NC(=O)[C@@H](NC(=O)[C@H](Cc1ccc(O)cc1)NC(=O)[C@H](CC(N)=O)NC(=O)[C@H](CC(=O)O)NC(=O)[C@@H](NC(=O)[C@H](Cc1ccccc1)NC(=O)[C@@H](NC(=O)[C@H](C)NC(=O)[C@H](CC(=O)O)NC(=O)[C@H](CO)NC(=O)[C@@H](N)Cc1c[nH]cn1)C(C)C)[C@@H](C)O)[C@@H](C)O)C(=O)N[C@@H](C)C(=O)N[C@H](C(=O)N[C@@H](CCCCN)C(=O)N[C@@H](CCCCN)C(=O)N[C@@H](Cc1ccc(O)cc1)C(=O)N[C@@H](CC(C)C)C(=O)N[C@H](C(=O)N[C@@H](CO)C(=O)N[C@H](C(=O)N[C@@H](CC(C)C)C(=O)N[C@@H](CC(N)=O)C(N)=O)[C@@H](C)CC)[C@@H](C)O)C(C)C` [(Nle^17, Thr^24)--VIP, (Nle^17, Thr^24)VIP] (HELM PEPTIDE1{H.S.D.A.V.F.T.D.N.Y.T.R.L.R.K.Q.[Nle].A.V.K.K.Y.L.T.S.I.L.N.[am]}$$$$V2.0), the “Relative Potency” value is on record as 125% and the EC50 worked out at 8e-09 M.
